How the values were obtained:
Assay type in all cases: cell-based
human TLR8 = target: T1, human TLR8 (Homo sapiens, UniProt Q9NR97); assay: TLR8 inhibition reporter assay (HEK-Blue SEAP reporter, R848 stimulation); details: HEK-Blue cells overexpressing human TLR8, SEAP reporter, R848 15.9 μM, 22 hour incubation
T1 construct: host or cells: HEK-Blue cells
T1 sequence (Q9NR97 27-1041): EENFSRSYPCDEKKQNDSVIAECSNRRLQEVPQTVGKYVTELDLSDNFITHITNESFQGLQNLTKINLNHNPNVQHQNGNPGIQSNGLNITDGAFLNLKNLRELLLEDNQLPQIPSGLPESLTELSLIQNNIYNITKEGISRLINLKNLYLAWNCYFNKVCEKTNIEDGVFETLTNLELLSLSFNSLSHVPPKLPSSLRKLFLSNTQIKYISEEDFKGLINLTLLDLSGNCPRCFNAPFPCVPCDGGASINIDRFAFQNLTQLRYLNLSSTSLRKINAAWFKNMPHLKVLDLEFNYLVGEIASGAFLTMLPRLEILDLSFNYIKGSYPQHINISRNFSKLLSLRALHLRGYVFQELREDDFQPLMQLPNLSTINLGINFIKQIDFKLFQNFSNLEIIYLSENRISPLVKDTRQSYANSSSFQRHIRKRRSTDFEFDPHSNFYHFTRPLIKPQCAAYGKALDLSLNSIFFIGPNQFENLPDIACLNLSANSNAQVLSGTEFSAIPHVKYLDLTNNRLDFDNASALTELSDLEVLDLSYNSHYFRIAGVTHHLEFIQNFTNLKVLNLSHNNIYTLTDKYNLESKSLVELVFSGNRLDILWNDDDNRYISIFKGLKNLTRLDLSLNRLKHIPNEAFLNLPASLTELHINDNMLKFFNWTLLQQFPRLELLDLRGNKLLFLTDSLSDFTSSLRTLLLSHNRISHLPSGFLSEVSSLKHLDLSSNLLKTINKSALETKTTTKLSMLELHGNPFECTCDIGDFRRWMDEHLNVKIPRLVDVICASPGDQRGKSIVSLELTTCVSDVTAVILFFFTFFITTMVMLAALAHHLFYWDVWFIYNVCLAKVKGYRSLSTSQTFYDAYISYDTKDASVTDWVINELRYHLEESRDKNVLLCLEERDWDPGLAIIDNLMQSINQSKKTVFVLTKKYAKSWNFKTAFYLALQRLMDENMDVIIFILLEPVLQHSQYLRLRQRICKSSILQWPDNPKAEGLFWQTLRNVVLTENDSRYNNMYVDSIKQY
How it was run: (§1)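 Human TLR7/8/9 HEK-Blue reporter lines; dose range 0.05 nM–50 μM; 30 min RT preincubation; stimulus gardiquimod 7.5 μM / R848 15.9 μM / ODN2006 5 nM respectively; 22 h, 37 °C; SEAP detected colorimetrically.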

human TLR7 = target: T2, human TLR7 (Homo sapiens, UniProt Q9NYK1); assay: TLR7 inhibition reporter assay (HEK-Blue SEAP reporter, gardiquimod stimulation); details: HEK-Blue cells overexpressing human TLR7, SEAP reporter, gardiquimod 7.5 μM, 22 hour incubation
T2 construct: host or cells: HEK-Blue cells
T2 sequence (Q9NYK1 27-1049): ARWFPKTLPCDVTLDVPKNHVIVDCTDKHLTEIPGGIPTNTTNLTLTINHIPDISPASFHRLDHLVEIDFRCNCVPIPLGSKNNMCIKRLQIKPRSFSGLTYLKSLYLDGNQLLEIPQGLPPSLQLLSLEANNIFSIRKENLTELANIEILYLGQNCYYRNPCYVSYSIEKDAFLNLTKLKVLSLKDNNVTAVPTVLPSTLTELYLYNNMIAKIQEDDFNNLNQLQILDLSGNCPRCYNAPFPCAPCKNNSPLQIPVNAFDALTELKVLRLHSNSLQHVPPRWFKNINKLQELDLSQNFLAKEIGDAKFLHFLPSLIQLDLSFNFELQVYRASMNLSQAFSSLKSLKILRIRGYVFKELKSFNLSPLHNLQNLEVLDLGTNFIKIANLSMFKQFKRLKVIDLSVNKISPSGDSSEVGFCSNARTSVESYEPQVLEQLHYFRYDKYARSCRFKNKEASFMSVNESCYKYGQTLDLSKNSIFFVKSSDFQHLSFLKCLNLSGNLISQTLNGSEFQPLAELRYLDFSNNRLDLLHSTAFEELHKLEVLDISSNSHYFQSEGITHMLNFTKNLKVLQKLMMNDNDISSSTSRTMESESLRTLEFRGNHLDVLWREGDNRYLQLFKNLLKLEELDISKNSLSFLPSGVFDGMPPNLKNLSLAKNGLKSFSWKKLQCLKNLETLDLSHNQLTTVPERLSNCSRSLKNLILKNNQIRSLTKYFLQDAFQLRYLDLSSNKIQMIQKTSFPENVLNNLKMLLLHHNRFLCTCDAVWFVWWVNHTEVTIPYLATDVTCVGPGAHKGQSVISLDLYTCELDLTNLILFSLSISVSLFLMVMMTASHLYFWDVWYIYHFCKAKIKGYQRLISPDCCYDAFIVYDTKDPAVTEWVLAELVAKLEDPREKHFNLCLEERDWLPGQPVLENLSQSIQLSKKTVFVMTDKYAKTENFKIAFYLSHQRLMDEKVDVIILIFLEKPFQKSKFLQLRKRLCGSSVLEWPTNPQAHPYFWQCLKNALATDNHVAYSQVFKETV
How it was run: as §1

human TLR9 = target: T3, human TLR9 (Homo sapiens, UniProt Q9NR96); assay: TLR9 inhibition reporter assay (HEK-Blue SEAP reporter, ODN2006 stimulation); details: HEK-Blue cells overexpressing human TLR9, SEAP reporter, ODN2006 5 nM, 22 hour incubation
T3 construct: host or cells: HEK-Blue cells
T3 sequence (Q9NR96 26-1032): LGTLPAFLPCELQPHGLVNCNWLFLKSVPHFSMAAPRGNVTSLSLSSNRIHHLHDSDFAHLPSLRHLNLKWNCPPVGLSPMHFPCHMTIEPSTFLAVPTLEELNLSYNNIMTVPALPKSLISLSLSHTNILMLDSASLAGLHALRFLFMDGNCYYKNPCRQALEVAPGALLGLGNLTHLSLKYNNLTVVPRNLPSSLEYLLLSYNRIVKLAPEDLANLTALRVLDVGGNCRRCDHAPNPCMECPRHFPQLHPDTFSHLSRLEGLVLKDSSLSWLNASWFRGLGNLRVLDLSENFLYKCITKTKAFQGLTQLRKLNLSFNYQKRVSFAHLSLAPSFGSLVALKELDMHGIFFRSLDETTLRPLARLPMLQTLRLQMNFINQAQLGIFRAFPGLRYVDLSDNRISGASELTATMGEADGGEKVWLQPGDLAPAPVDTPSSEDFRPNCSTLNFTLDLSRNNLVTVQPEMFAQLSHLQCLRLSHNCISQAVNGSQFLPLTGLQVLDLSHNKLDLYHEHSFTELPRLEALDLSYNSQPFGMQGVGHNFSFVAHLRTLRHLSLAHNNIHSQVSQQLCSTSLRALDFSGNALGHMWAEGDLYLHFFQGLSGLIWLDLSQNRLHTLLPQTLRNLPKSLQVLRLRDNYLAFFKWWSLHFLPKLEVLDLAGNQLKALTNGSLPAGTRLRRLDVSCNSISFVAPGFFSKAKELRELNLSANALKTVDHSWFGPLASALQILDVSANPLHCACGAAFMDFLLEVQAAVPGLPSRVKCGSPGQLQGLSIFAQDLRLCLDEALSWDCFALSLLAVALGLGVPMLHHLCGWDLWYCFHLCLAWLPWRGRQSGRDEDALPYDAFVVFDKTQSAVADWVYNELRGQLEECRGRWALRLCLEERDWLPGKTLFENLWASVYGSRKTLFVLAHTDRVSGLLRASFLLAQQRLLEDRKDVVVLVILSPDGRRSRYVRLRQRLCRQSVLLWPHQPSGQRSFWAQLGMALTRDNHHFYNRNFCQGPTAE
How it was run: as §1

Cc1cc(-c2[nH]c3ccc(C4CCN(CC(=O)N5CCC(=O)N5)CC4)cc3c2C(C)C)cn(C)c1=O [Example 121, 5-(3-isopropyl-5-(1-(2-oxo-2-(3-oxopyrazolidin-1-yl)ethyl)piperidin-4-yl)-1H-indol-2-yl)-1,3-dimethylpyridin-2(1H)-one]
IC50 (human TLR8): 102 nM
IC50 (human TLR7): 40.7 nM
IC50 (human TLR9): ≥ 50000 nM

CC(C)c1c(-c2cc(-c3ccccc3)c(=O)n(C)c2)[nH]c2ccc(C3CCN(CC(=O)N(C)C)CC3)cc12 [Example 170, 2-(4-(3-isopropyl-2-(1-methyl-6-oxo-5-phenyl-1,6-dihydropyridin-3-yl)-1H-indol-5-yl)piperidin-1-yl)-N,N-dimethylacetamide]
IC50 (human TLR8): 14.4 nM
IC50 (human TLR7): 19.8 nM
IC50 (human TLR9): 2080 nM

Cc1c(-c2[nH]c3ccc(C4CCN(C(=O)CN(C)C)CC4)cc3c2C(C)C)cn(C)c(=O)c1C#N [Example 274, 5-(5-(1-(dimethylglycyl)piperidin-4-yl)-3-isopropyl-1H-indol-2-yl)-1,4-dimethyl-2-oxo-1,2-dihydropyridine-3-carbonitrile]
IC50 (human TLR8): 15.3 nM
IC50 (human TLR7): 183 nM
IC50 (human TLR9): 1590 nM

Cc1cc(-c2[nH]c3ccc(C4CCN(C(C)(C)C(=O)O)CC4)cc3c2C(C)C)cn(C)c1=O [Example 148, 2-(4-(2-(1,5-dimethyl-6-oxo-1,6-dihydropyridin-3-yl)-3-isopropyl-1H-indol-5-yl)piperidin-1-yl)-2-methylpropanoic acid]
IC50 (human TLR8): 364 nM
IC50 (human TLR7): 193 nM
IC50 (human TLR9): ≥ 50000 nM

Cc1cc(-c2[nH]c3ccc(C4CCN(CCC(C)C)CC4)cc3c2C(C)C)cn(C)c1=O [Example 86, 5-(5-(1-isopentylpiperidin-4-yl)-3-isopropyl-1H-indol-2-yl)-1,3-dimethylpyridin-2(1H)-one]
IC50 (human TLR8): 4.6 nM
IC50 (human TLR7): 2.1 nM
IC50 (human TLR9): 2540 nM

CCCN1CCC(c2ccc3[nH]c(-c4cc(-c5cnc(OC)nc5)c(=O)n(C)c4)c(C(C)C)c3c2)CC1 [Example 331, 5-(3-isopropyl-5-(1-propylpiperidin-4-yl)-1H-indol-2-yl)-3-(2-methoxypyrimidin-5-yl)-1-methylpyridin-2(1H)-one]
IC50 (human TLR8): 9.6 nM
IC50 (human TLR7): 6.3 nM
IC50 (human TLR9): 2710 nM

CCCN1CCC(c2ccc3[nH]c(-c4cc(-c5ccc(N6CCOCC6)nc5)c(=O)n(C)c4)c(C(C)C)c3c2)CC1 [Example 330, 5-(3-isopropyl-5-(1-propylpiperidin-4-yl)-1H-indol-2-yl)-1-methyl-6′-morpholino-[3,3′-bipyridin]-2(1H)-one]
IC50 (human TLR8): 432 nM
IC50 (human TLR7): 7.7 nM
IC50 (human TLR9): 705 nM

Cc1cc(-c2[nH]c3ccc(C4CCNCC4)cc3c2C(C)C)cn(CC(C)C)c1=O [Example 36, 1-isobutyl-5-(3-isopropyl-5-(piperidin-4-yl)-1H-indol-2-yl)-3-methylpyridin-2(1H)-one]
IC50 (human TLR8): 81.2 nM
IC50 (human TLR7): 9.6 nM
IC50 (human TLR9): 1310 nM

CC(C)c1c(-c2cc(-c3cccnc3)c(=O)n(C)c2)[nH]c2ccc(C3CCNCC3)cc12 [Example 50, 5-(3-isopropyl-5-(piperidin-4-yl)-1H-indol-2-yl)-1-methyl-[3,3′-bipyridin]-2(1H)-one]
IC50 (human TLR8): 7.7 nM
IC50 (human TLR7): 6.8 nM
IC50 (human TLR9): 411 nM

CC(C)c1c(-c2ccc(=O)n(C)c2)[nH]c2ccc(C3CCNCC3)cc12 [Example 1, 5-(3-isopropyl-5-(piperidin-4-yl)-1H-indol-2-yl)-1-methylpyridin-2(1H)-one]
IC50 (human TLR8): 15.4 nM
IC50 (human TLR7): 27.5 nM
IC50 (human TLR9): 621 nM

Cc1nc(-c2[nH]c3ccc(C4CCN(C)CC4)cc3c2C(C)C)cn(C)c1=O [Example 183, 5-(3-isopropyl-5-(1-methylpiperidin-4-yl)-1H-indol-2-yl)-1,3-dimethylpyrazin-2(1H)-one]
IC50 (human TLR8): 31.4 nM
IC50 (human TLR7): 28.5 nM
IC50 (human TLR9): 9650 nM

Cc1cc(-c2[nH]c3ccc(C4CCN(C5CCOC5)CC4)cc3c2C(C)C)cn(C)c1=O (stereo not drawn) [Example 180, 5-(3-isopropyl-5-(1-(tetrahydrofuran-3-yl)piperidin-4-yl)-1H-indol-2-yl)-1,3-dimethylpyridin-2(1H)-one]
IC50 (human TLR8): 8.2 nM
IC50 (human TLR7): 7 nM
IC50 (human TLR9): 5750 nM

Cc1cc(-c2[nH]c3ccc(C4CCN(Cc5ccnn5C)CC4)cc3c2C(C)C)cn(C)c1=O [Example 197, 5-(3-isopropyl-5-(1-((1-methyl-1H-pyrazol-5-yl)methyl)piperidin-4-yl)-1H-indol-2-yl)-1,3-dimethylpyridin-2(1H)-one]
IC50 (human TLR8): 2.4 nM
IC50 (human TLR7): 4.6 nM
IC50 (human TLR9): 8340 nM

Cc1cc(-c2[nH]c3ccc(C4CCN([C@@H]5CCNC5=O)CC4)cc3c2C(C)C)cn(C)c1=O [Example 123, (R)-5-(3-isopropyl-5-(1-(2-oxopyrrolidin-3-yl)piperidin-4-yl)-1H-indol-2-yl)-1,3-dimethylpyridin-2(1H)-one]
IC50 (human TLR8): 8 nM
IC50 (human TLR7): 7 nM
IC50 (human TLR9): 23800 nM

From patent publication US11447466B2, “Substituted indole compounds useful as inhibitors of TLR7/8/9” (BRISTOL-MYERS SQUIBB COMPANY, priority 2017, dated 2022)
